{"source": "ChEMBL document CHEMBL1152397", "about": "“Cytotoxic and antimycobacterial prenylated flavonoids from the roots of Eriosema chinense” (J Nat Prod, 2009)", "key": {"KB": {"test_system": "KB", "assay": "Cytotoxicity against human KB cells by sulforhodamine B assay", "assay_type": "functional, cell-based"}, "NCI-H187": {"test_system": "NCI-H187", "assay": "Cytotoxicity against human NCI-H187 cells by sulforhodamine B assay", "assay_type": "functional, cell-based"}, "[1]": {"test_system": "Mycobacterium tuberculosis", "assay": "Antimycobacterial activity against Mycobacterium tuberculosis H37Ra after […] by microplate alamar Blue assay", "assay_type": "functional"}, "Vero": {"test_system": "Vero", "assay": "Cytotoxicity against african green monkey Vero cells by sulforhodamine B assay", "assay_type": "cell-based", "details": "Chlorocebus sabaeus"}}}
{"compound": "Cc1c2ccncc2c(C)c2c1[nH]c1ccccc12", "note": "[ELLIPTECINE]", "values": [{"measurement": "IC50", "setting": "KB", "result": 0.37, "unit": "µg/mL"}, {"measurement": "IC50", "setting": "NCI-H187", "result": 0.44, "unit": "µg/mL"}]}
{"compound": "CC(C)=CCc1c(O)c2c(c3c1OC(C)(C)C=C3)O[C@H](c1ccc(O)cc1O)CC2=O", "note": "[ERIOSEMAONE A]", "values": [{"measurement": "MIC", "setting": "[1]", "result": 12.5, "unit": "µg/mL"}, {"measurement": "IC50", "setting": "KB", "result": 5.8, "unit": "µg/mL"}, {"measurement": "IC50", "setting": "NCI-H187", "result": 6, "unit": "µg/mL"}]}
{"compound": "CC(C)=CCc1c2c(c(O)c3c(=O)c(O)c(-c4ccc(O)cc4)oc13)C=CC(C)(C)O2", "note": "[DEHYDROLUPINIFOLINOL]", "values": [{"measurement": "MIC", "setting": "[1]", "result": 12.5, "unit": "µg/mL"}, {"measurement": "IC50", "setting": "KB", "result": 5.8, "unit": "µg/mL"}, {"measurement": "IC50", "setting": "NCI-H187", "result": 3.9, "unit": "µg/mL"}, {"measurement": "IC50", "setting": "Vero", "result": 11.1, "unit": "µg/mL"}]}
{"compound": "CC(C)=CCc1c2c(c(O)c3c1O[C@H](c1ccc(O)cc1)[C@@H](O)C3=O)C=CC(C)(C)O2", "note": "[LUPINIFOLINOL]", "values": [{"measurement": "MIC", "setting": "[1]", "result": 25, "unit": "µg/mL"}, {"measurement": "IC50", "setting": "KB", "result": 1.73, "unit": "µg/mL"}, {"measurement": "IC50", "setting": "NCI-H187", "result": 3.5, "unit": "µg/mL"}]}
{"compound": "CC(C)=CCc1c2c(c(O)c3c1O[C@H](c1ccc(O)cc1)CC3=O)C=CC(C)(C)O2", "note": "[LUPINIFOLIN]", "values": [{"measurement": "MIC", "setting": "[1]", "result": 12.5, "unit": "µg/mL"}, {"measurement": "IC50", "setting": "KB", "result": 2.4, "unit": "µg/mL"}, {"measurement": "IC50", "setting": "NCI-H187", "result": 6.5, "unit": "µg/mL"}]}
{"compound": "NNC(=O)c1ccncc1", "note": "[ISONIAZID]", "values": [{"measurement": "MIC", "setting": "[1]", "result": 0.023, "unit": "µg/mL"}]}
{"compound": "COc1ccc([C@@H]2CC(=O)c3c(O)c4c(c(CC=C(C)C)c3O2)OC(C)(C)C=C4)c(O)c1", "note": "[KHONKLONGINOL H]", "values": [{"measurement": "MIC", "setting": "[1]", "result": 25, "unit": "µg/mL"}, {"measurement": "IC50", "setting": "KB", "result": 5.4, "unit": "µg/mL"}, {"measurement": "IC50", "setting": "NCI-H187", "result": 3.3, "unit": "µg/mL"}, {"measurement": "IC50", "setting": "Vero", "result": 6.4, "unit": "µg/mL"}]}
{"compound": "COc1ccc([C@H]2Oc3c(CC=C(C)C)c4c(c(O)c3C(=O)[C@@H]2O)C=CC(C)(C)O4)cc1", "note": "[KHONKLONGINOL A]", "values": [{"measurement": "MIC", "setting": "[1]", "result": 25, "unit": "µg/mL"}, {"measurement": "IC50", "setting": "KB", "result": 3.1, "unit": "µg/mL"}, {"measurement": "IC50", "setting": "NCI-H187", "result": 3, "unit": "µg/mL"}, {"measurement": "IC50", "setting": "Vero", "result": 7.9, "unit": "µg/mL"}]}
{"compound": "COc1ccc([C@H]2Oc3c(CC=C(C)C)c4c(c(O)c3C(=O)[C@H]2O)C=CC(C)(C)O4)cc1", "note": "[KHONKLONGINOL B]", "values": [{"measurement": "MIC", "setting": "[1]", "result": 50, "unit": "µg/mL"}, {"measurement": "IC50", "setting": "KB", "result": 3.8, "unit": "µg/mL"}, {"measurement": "IC50", "setting": "NCI-H187", "result": 4.3, "unit": "µg/mL"}, {"measurement": "IC50", "setting": "Vero", "result": 6.9, "unit": "µg/mL"}]}
{"compound": "CN[C@@H]1[C@H](O[C@H]2[C@H](O[C@H]3[C@H](O)[C@@H](O)[C@H](N=C(N)N)[C@@H](O)[C@@H]3N=C(N)N)O[C@@H](C)[C@]2(O)C=O)O[C@@H](CO)[C@H](O)[C@H]1O", "note": "[STREPTOMYCIN]", "values": [{"measurement": "MIC", "setting": "[1]", "result": 0.156, "unit": "µg/mL"}]}
{"compound": "CC(C)=CCc1c2c(c(O)c3c1O[C@H](c1ccc(O)cc1O)CC3=O)C=CC(C)(C)O2", "note": "[FLEMICHIN D]", "values": [{"measurement": "MIC", "setting": "[1]", "result": 12.5, "unit": "µg/mL"}, {"measurement": "IC50", "setting": "KB", "result": 3.3, "unit": "µg/mL"}, {"measurement": "IC50", "setting": "NCI-H187", "result": 2.1, "unit": "µg/mL"}]}
{"compound": "COc1cccc2c1C(=O)c1c(O)c3c(c(O)c1C2=O)C[C@@](O)(C(=O)CO)C[C@@H]3O[C@H]1C[C@H](N)[C@H](O)[C@H](C)O1", "note": "[DOXORUBICIN]", "values": [{"measurement": "IC50", "setting": "KB", "result": 0.12, "unit": "µg/mL"}, {"measurement": "IC50", "setting": "NCI-H187", "result": 0.042, "unit": "µg/mL"}]}
{"compound": "COc1ccc(-c2oc3c(CC=C(C)C)c4c(c(O)c3c(=O)c2O)C=CC(C)(C)O4)cc1", "note": "[KHONKLONGINOL F]", "values": [{"measurement": "MIC", "setting": "[1]", "result": 100, "unit": "µg/mL"}, {"measurement": "IC50", "setting": "KB", "result": 6.7, "unit": "µg/mL"}, {"measurement": "IC50", "setting": "NCI-H187", "result": 2.4, "unit": "µg/mL"}, {"measurement": "IC50", "setting": "Vero", "result": 7, "unit": "µg/mL"}]}
